From patent US20130084329A1, “COMPOSITIONS FOR EXTERNAL APPLICATION, CONTAINING ADENOSYLCOBALAMIN FOR IMPROVEMENT OF SKIN DISEASES” (HANALL BIOPHARMA CO., LTD., priority 2005, published 2013)
Where “and” joins values, the source holds several entries; their conditions need not be identical. Equal values may be shown once.

System: CD4+ T cell (C57BL/6) co-cultured with dendritic cell (BALB/C)
Experiment: Inhibition test of T-cell proliferation, 1 way mixed lymphocyte reaction (MLR), H3-thymidine incorporation
Assay type: cell-based, mouse
Conditions: for % of inhibition = [cpm (untreated) - cpm(treated)] / cpm (untreated): T cell proliferation, from photo-nonexposed CPM
Description: It is typically known that the increase of CD4^+ T cells is observed in atopic dermatitis lesion, and cytokines secreted from CD4^+ T cells make the condition of atopic dermatitis worse (DirkJan Hijnen et al., J Invest Dermatol 125:1149-1155, 2005). Therefore, we tried to determine the therapeutic effectiveness of cobalamin derivatives for treatment of atopic dermatitis by examining the changes of T-cell proliferation before and after photolysis of cobalamin derivatives.
When the T cell separated from one mouse strain and the dendritic cell (DC, antigen presenting cell) separated from another mouse strain are mixed together, the immune response by the T cell occurs. This immune response is a tissue incompatibility reaction due to the difference of the genes of MHC molecules of the two strains.
In this experiment, the target cell (DC) derived from BALB/C strain and the CD4^+ T cell (the responder) derived from C57BL/6 (B6) strain are mixed and co-cultured to induce a 1 way MLR. In this process, several types of cobalamin derivatives (cyanocobalamin, hydroxocobalamin, methylcobalamin, adenosylcobalamin) are treated, and then the intensities of the immune response are measured by comparing the T cell proliferation for each of the cobalamin derivative-treated group.
1) Bone marrow derived dendritic cells were isolated from 8 weeks BALB/c mouse as follows.
2) The femur and tibiae were separated from a mouse, and then soaked in PBS. The muscle tissues were removed from them. Then, the bones were soaked in 70% EtOH for 2 minutes for sterilization, and then EtOH was washed off with PBS.
3) A needle of a 10 ml syringe filled with PBS was inserted into ends of the bones and then PBS was injected into the bones to isolate the bone marrow.
4) The obtained bone marrow was made into a single cell suspension by pipetting.
5) 1˜1.5×10^7 of leukocytes were isolated per one femur or one tibia.
6) Culture medium was prepared (RPMI-1640+Penicillin/Streptomycin, L-Glutamin, 2-MercaptoEtOH, 10% Fetal Bovine Serum, Recombinant mouse GM-CSF). 2×10^6 of BM leukocytes were plated onto 100 mm Petri dish with 10 ml of the culture medium. At this time, […] (in case of 20 ng/ml, 5×10^6 U/mg) of rmGM-CSF was added. (Day 0)
7) Day 3, 10 ml of culture medium (including 200 U/ml GM-CSF) was added.
8) Day 6, culture medium replacement: 10 ml of culture medium from the culture plate was taken, and then centrifuged. The obtained cells were released in a fresh medium containing GM-CSF 200 U/ml, and then they were put back into the original culture plate. Through this process, half of the entire culture medium could be changed to a new medium.
9) Day 8, culture medium replacement: Half of the culture medium was replaced in the same way as day 6.
10) Day 9, after collecting BM-DCs by pipetting carefully, and centrifuging at 300 g/RT/5 min, they were poured into 10 ml of fresh culture medium. The BM-DCs were plated on 100 mm tissue culture plate. 100 U/ml of rmGM-CSF and 1 μg/ml of LPS were added to the culture medium. The BM-DCs were fully maturated by culturing for an extra day.
1) The spleen was separated out from C57BL/6 mouse, and was ground by using the nylon mesh in PBS and then centrifuged at 300×g for 4 min.
2) The obtained cell pellet was treated with 5 ml of ACK RBC lysing solution for 5 minutes in RT, and then washed with PBS.
3) After resuspending the cells in 500 μl of MACs buffer (PBS+EDTA/BSA), the cells were stained with 50 μl of anti-CD4 microbead. Then, the CD4^+ T cell (1×10^7 cells) were separated from the cells according to the manual of MACS kit (Miltenyi Company).
1) The experiment for determining MLR response was designed to comprise control group, photo-exposed group, and photo-nonexposed group as follows. Each group was tested in triplicate according to concentration and substance on 3 wells. […]

[1] = 500 μM (highest concentration), 500 µM
[2] = 10 μM (lowest concentration), 10 µM

Row | Molecule | % of inhibition = [cpm (untreated) - cpm(treated)] / cpm (untreated) [1] | radioactivity (CPM), single wells of triplicate (photo-nonexposed group, 10 μm) | radioactivity (CPM), single wells of triplicate (photo-nonexposed group, 30 μm) | radioactivity (CPM), single wells of triplicate (photo-nonexposed group, 100 μm) | radioactivity (CPM), single wells of triplicate (photo-nonexposed group, 500 μm) | % of inhibition = [cpm (untreated) - cpm(treated)] / cpm (untreated) [2] | % of inhibition = [cpm (untreated) - cpm(treated)] / cpm (untreated) (30 μM) | % of inhibition = [cpm (untreated) - cpm(treated)] / cpm (untreated) (100 μM) | also measured
1 | C/C1=C2/[N-][C@H]([C@H](CC(N)=O)[C@@]2(C)CCC(=O)NC[C@H](C)OP(=O)([O-])O[C@H]2[C@@H](O)[C@@H](n3cnc4cc(C)c(C)cc43)O[C@@H]2CO)[C@]2(C)N=C(/C(C)=C3N=C(/C=C4N=C1[C@@H](CCC(N)=O)C\4(C)C)[C@@H](CCC(N)=O)[C@]\3(C)CC(N)=O)[C@@H](CCC(N)=O)[C@]2(C)CC(N)=O.[CH3-].[Co+3] [M-co, methylcobalamin] | 49.98% and 36.23% and 45.1184% | 37594 CPM and 43624 CPM and 44951 CPM | 36641 CPM and 28896 CPM and 40298 CPM | 37066 CPM and 30678 CPM and 39514 CPM | 22687 CPM and 28924 CPM and 24891 CPM |  |  |  | radioactivity (CPM), single wells of triplicate (photo-exposed group (under the light for 1 hr before treatment), 3 μM, listed as Photo-M-co): 33467 CPM and 32885 CPM and 50368 CPM; radioactivity (CPM), single wells of triplicate (photo-exposed group (under the light for 1 hr before treatment), 10 μM, listed as Photo-M-co): 42973 CPM and 43693 CPM and 41162 CPM; radioactivity (CPM), single wells of triplicate (photo-exposed group (under the light for 1 hr before treatment), 30 μM, listed as Photo-M-co): 18844 CPM and 28639 CPM and 29522 CPM
2 | cyanocobalamin [C-co] |  | 43413 CPM and 39935 CPM and 41240 CPM | 42882 CPM and 30722 CPM and 40187 CPM | 41663 CPM and 48408 CPM and 39928 CPM | 36303 CPM and 40107 CPM | 4.28% and 11.95% and 9.071% |  |  | radioactivity (CPM), single wells of triplicate (photo-exposed group (under the light for 1 hr before treatment), 3 μM, listed as Photo-C-co): 41161 CPM and 57338 CPM and 56253 CPM; radioactivity (CPM), single wells of triplicate (photo-exposed group (under the light for 1 hr before treatment), 10 μM, listed as Photo-C-co): 39141 CPM and 36381 CPM and 39492 CPM; radioactivity (CPM), single wells of triplicate (photo-exposed group (under the light for 1 hr before treatment), 30 μM, listed as Photo-C-co): 38702 CPM and 34451 CPM and 34078 CPM; radioactivity (CPM), single wells of triplicate (photo-exposed group (under the light for 1 hr before treatment), 100 μM, listed as Photo-C-co): 50511 CPM and 27692 CPM and 30567 CPM
3 | C/C1=C2/[N-][C@H]([C@H](CC(N)=O)[C@@]2(C)CCC(=O)NC[C@@H](C)OP(=O)([O-])O[C@H]2[C@@H](O)[C@@H](n3cnc4cc(C)c(C)cc43)O[C@@H]2CO)[C@]2(C)N=C(/C(C)=C3N=C(/C=C4N=C1[C@@H](CCC(N)=O)C\4(C)C)[C@@H](CCC(N)=O)[C@]\3(C)CC(N)=O)[C@@H](CCC(N)=O)[C@]2(C)CC(N)=O.[Co+3].[OH-] [H-co, hydroxocobalamin] | 67.35% and 75.19% and 70.9% | 41967 CPM and 33493 CPM and 38243 CPM | 33669 CPM and 34662 CPM and 34340 CPM | 28541 CPM and 26247 CPM and 29747 CPM | 14806 CPM and 11254 CPM and 13198 CPM |  | 25.76% and 23.13% and 24.28% | 37.0706% and 42.13% and 34.41% | radioactivity (CPM), single wells of triplicate (photo-exposed group (under the light for 1 hr before treatment), 3 μM, listed as Photo-H-co): 52932 CPM and 46313 CPM and 40358 CPM; radioactivity (CPM), single wells of triplicate (photo-exposed group (under the light for 1 hr before treatment), 10 μM, listed as Photo-H-co): 42615 CPM and 39452 CPM and 33765 CPM; radioactivity (CPM), single wells of triplicate (photo-exposed group (under the light for 1 hr before treatment), 30 μM, listed as Photo-H-co): 34824 CPM and 37105 CPM and 32225 CPM; radioactivity (CPM), single wells of triplicate (photo-exposed group (under the light for 1 hr before treatment), 100 μM, listed as Photo-H-co): 37189 CPM and 23765 CPM and 30994 CPM
4 | C/C1=C2/[N-][C@H]([C@H](CC(N)=O)[C@@]2(C)CCC(=O)NC[C@@H](C)OP(=O)([O-])O[C@H]2[C@@H](O)[C@@H](n3cnc4cc(C)c(C)cc43)O[C@@H]2CO)[C@]2(C)N=C(/C(C)=C3N=C(/C=C4N=C1[C@@H](CCC(N)=O)C\4(C)C)[C@@H](CCC(N)=O)[C@]\3(C)CC(N)=O)[C@@H](CCC(N)=O)[C@]2(C)CC(N)=O.[CH2-][C@H]1O[C@@H](n2cnc3c(N)ncnc32)[C@H](O)[C@@H]1O.[Co] [A-co, adenosylcobalamin] | 96.51% and 97.48% and 98.07% | 19094 CPM and 19033 CPM and 18047 CPM | 14064 CPM and 10071 CPM and 7326 CPM |  | 1585 CPM and 1141 CPM and 875 CPM | 57.9% and 58.03% and 60.21% | 66.99% and 77.79% and 83.85% | 89.85% and 91.31% and 95.18% | radioactivity (CPM), single wells of triplicate (photo-exposed group (under the light for 1 hr before treatment), 3 μM, listed as Photo-A-co): 26305 CPM and 14772 CPM and 24306 CPM; radioactivity (CPM), single wells of triplicate (photo-exposed group (under the light for 1 hr before treatment), 10 μM, listed as Photo-A-co): 2225 CPM and 3123 CPM and 1922 CPM; radioactivity (CPM), single wells of triplicate (photo-exposed group (under the light for 1 hr before treatment), 30 μM, listed as Photo-A-co): 997 CPM and 1091 CPM and 1391 CPM; radioactivity (CPM), single wells of triplicate (photo-exposed group (under the light for 1 hr before treatment), 100 μM, listed as Photo-A-co): 696 CPM and 1259 CPM and 1333 CPM
